Measured values taken from patent publication US20240108585A1, “COMPOSITIONS COMPRISING LIPID-BASED NANOPARTICLES FOR TREATING DIABETES MELLITUS” (SDG, Inc., priority 2018, published 2024).

Legend:
[1] = test system: type 1 diabetes mellitus (T1DM); test: ISLE-1: 26-week Phase 2b multicenter randomized double-blind non-inferiority trial, HDV-L vs LIS, multiple daily injections
Source text: ISLE-1 was a 26-week, Phase 2b, multicenter, randomized, double-blind, non-inferiority trial.
ISLE-1 was a 26-week, Phase 2b, multicenter, randomized, double-blind, trial in T1DM treated with multiple daily injections (MDI) of insulin.
Main inclusion criteria were: age ≥18 years; T1D for ≥12 months; A1c ≥7.0 ([…]) to ≤10.5% (≤91 mmol/mol); treated with insulins glargine or detemir for basal coverage. Main exclusion criteria were total insulin dose ≥1.5 IU/kg/day or NPH insulin as basal.
Prandial dosing of HDV-lispro or control lispro was 15 minutes prior to the meal, and basal insulins were administered either as a single daily dose or a divided twice per day dosing, every 12 hours.
Informed of −10% dilution, participants continued their current insulin parameters. Hypoglycemia was recorded on Case Report Forms (CRFs) based on subject diaries and SMBG records, subjectively investigator-judged as “mild,” “moderate,” “severe,” or “life threatening.” Blinded continuous glucose monitoring (CGM) (Dexcom G4) was used for 5-7 days to assess glucose at baseline, weeks 13 and 26. A1c, lipids, and liver enzymes were measured approximately monthly. Liver fat content MRIs were performed in a subset.
The intent to treat (ITT) population included all randomized subjects receiving at least one dose of study treatment. Safety analyses included all randomized subjects. […] Mean A1c change was analyzed using ANCOVA within intent-to-treat (ITT) cohort at each visit. Post hoc subgroup analyses (baseline A1c <8.5% vs ≥8.5%) were performed, this cut point corresponding to pre-specified randomization strata. Direct likelihood models were used for treatment arm A1c comparisons, % time <54 mg/dL, bolus insulin, and basal insulin within the two A1c subgroups. Poisson regression models adjusting for site as random effect compared “severe” hypoglycemia incidence rates within A1c groups, testing for baseline A1c by treatment group interaction. Event number/subject was truncated at 15, accounting for extreme outliers.

[2] = test system: adult Type 1 diabetes mellitus; test: Example 2 pump study: randomized double-blinded two-way crossover, HDV lispro vs lispro by insulin pump, CGM and mixed meal test; assay type: in vivo, human; settings: baseline HbA1c 7.19; 3-week pump period; 7 subjects
Source text: A study was run comparing the efficacy of HDV lispro vs. lispro to treat adult Type 1 diabetes mellitus when administered by pump. The study involved 7 subjects and was a randomized, double-blinded two-way crossover study. The dosing duration was 3-week on standard insulin x 3-week on HDV-insulin with infusion via standard commercial insulin pumps, and a mixed meal test was employed; continuous glucose monitoring was achieved via blinded Dexcom G4 Platinum Continuous Glucose Monitor. The baseline HbA1c was 7.19, and the ending HbA1c was 7.21 (for the HDV group) and 7.08 (for the lispro group).

[3] = test system: adult Type 1 diabetes mellitus; test: Example 3: double-blinded randomized six-week parallel study, HDV lispro vs lispro, multiple daily injections, CGM; assay type: in vivo, human
Source text: A double-blinded, randomized study was run comparing the efficacy of HDV lispro vs. lispro to treat adult Type 1 diabetes mellitus. The study involved 43 (1:1) subjects (who were considered to be in good control, with HbA1c levels between 7-8%) and was a six-week parallel design study, with multiple daily injections. The baseline HbA1c was 7.35 (HDV group) and 7.39 (lispro group). The primary endpoint was a two-hour reduction in glucose time out of range.

Substance: insulin lispro
- treatment-related serious adverse events ([1]; 26 weeks): No treatment-related serious adverse events were reported
- Mean change in A1c baseline to Week 26 ([1]; all subjects, HDV-L n=118, LIS n=58): −0.16%
- change in A1c over time ([1]; baseline A1c <8.5%): little change
- time <54 mg/dL during Week 26 (median) ([1]; baseline A1c <8.5%, CGM, p=0.16): 0.6%
- CRF-reported incidence of "severe" hypoglycemia ([1]; baseline A1c <8.5%, p=0.001, unit not given): 21
- percentage time <54 mg/dL during Week 26 (median) ([1]; baseline A1c >8.5%, CGM, p=0.09): 2.6%
- change in total cholesterol ([1]; over the study): 7.3 mg/dL
- "life threatening" hypoglycemia events ([1]; whole study): No “life threatening” events were recorded
- ending HbA1c [2]: 7.08
- Time in Range (70-180 mg/dL), increase [3]: *No Change in Lispro Group
- Time in Target (70-140 mg/dL), increase [3]: *No Change in Lispro Group
